Results on 12 compounds are retold here after patent US10202371B2, “Oxazolidin-2-one-pyrimidine derivatives and the use thereof as phosphatidylinositol-3-kinase inhibitors” (Novartis AG, priority 2012, dated 2019).

Structures are written as SMILES.

For one data set, the target named is human PI3Kβ (Homo sapiens (Human), UniProt P42338). As to the kind of experiment: Biochemical assay PI3Kbeta (KinaseGlo luminescence). Conditions: 1 μM ATP, read-out: PI3Kb/IC50. From the text: Cancer Ther. accepted). […] (L-alpha-phosphatidylinositol (PI), Liver, Bovine) were obtained from Avanti Polar Lipid (Cat. […] (Avanti, Cat. No. 840046X) or L-α-phosphatidylinositol (PI) was obtained from Avanti Polar Lipid (Cat. […] Luminescence is a well established readout to determine ATP concentrations and can thus be used to follow the activity of many kinases regardless of their substrate. The Kinase Glo Luminescent Kinase Assay (Promega, Madison/WI, USA) is a homogeneous HTS method of measuring kinase activity by quantifying the amount of ATP remaining in solution following a kinase reaction. 50 nL of compound dilutions were dispensed onto black 384-well low volume Non Binding Styrene (NBS) plates (Costar Cat. No. […] L-α-phosphatidylinositol (PI), provided as 10 mg/ml solution in methanol, was transferred into a glass tube and dried under nitrogen beam. […] NVP-BGT226 was used as a reference compound and included in all assay plates in the form of 16 dilution points in duplicate. […] All fits were performed with the program XLfit4 (ID Business Solutions, Guildford, UK).
Chain of human PI3Kβ (P42338 2-1070): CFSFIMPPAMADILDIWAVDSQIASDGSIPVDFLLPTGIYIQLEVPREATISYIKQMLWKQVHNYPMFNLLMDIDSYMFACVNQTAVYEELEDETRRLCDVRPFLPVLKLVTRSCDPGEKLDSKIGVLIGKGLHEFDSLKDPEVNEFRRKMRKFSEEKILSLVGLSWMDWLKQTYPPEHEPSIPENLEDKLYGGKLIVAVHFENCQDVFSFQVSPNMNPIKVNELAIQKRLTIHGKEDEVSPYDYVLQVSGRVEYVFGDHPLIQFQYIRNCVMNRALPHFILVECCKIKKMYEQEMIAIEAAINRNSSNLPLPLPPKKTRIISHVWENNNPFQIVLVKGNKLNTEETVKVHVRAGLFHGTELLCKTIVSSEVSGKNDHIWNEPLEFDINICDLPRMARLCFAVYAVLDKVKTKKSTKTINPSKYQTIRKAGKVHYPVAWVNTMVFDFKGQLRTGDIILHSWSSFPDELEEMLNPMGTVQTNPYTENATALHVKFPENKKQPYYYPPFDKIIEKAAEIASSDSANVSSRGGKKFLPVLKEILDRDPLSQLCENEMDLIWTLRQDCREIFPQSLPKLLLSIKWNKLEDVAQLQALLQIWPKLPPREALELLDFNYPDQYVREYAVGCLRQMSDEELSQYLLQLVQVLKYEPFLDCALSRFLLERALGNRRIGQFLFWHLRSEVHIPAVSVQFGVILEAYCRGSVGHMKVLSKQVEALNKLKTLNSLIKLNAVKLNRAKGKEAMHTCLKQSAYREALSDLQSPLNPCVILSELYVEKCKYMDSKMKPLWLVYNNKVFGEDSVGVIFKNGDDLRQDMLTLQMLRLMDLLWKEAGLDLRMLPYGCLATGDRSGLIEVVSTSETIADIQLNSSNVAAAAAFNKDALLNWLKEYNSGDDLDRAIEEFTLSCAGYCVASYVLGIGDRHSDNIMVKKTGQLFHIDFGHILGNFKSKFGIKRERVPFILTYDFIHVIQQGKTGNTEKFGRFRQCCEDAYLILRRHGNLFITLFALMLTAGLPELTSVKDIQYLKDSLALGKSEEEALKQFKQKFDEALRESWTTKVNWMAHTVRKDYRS
Background: In Kinase-Glo more light means more ATP remaining.

Data set [1] in a line: Photostability in light stability chamber. The format is physicochemical. As to conditions: 1.0 mg/ml in ethanol, 19620 kJ/m^2 over 13 h, 15° C., UPLC 254 nm. The method, then:
Samples investigated for light stability were treated in a light stability chamber (Atlas CPS+, Serial Number 0704013). Solutions of 1.0 mg/ml in ethanol were prepared for each molecule and aliquots of 0.5 mL were dispensed into suitable micro tubes. All measurements were done in duplicate and compared to a reference wrapped in aluminium foil during light exposure. Solutions were exposed to 19620 kJ/m^2 over 13 h. Samples were kept at 15° C. during the experiment. […] The peak areas were automatically integrated, and the degradation percentage calculated as the difference between the corresponding peak area percentage of the reference sample and the average peak area percentage of the exposed samples (duplicate).

The target in data set [2] is human PI3Kbeta p110 catalytic subunit (Rat-1 cells) (Homo sapiens (Human), UniProt P42338). As to the kind of experiment: Cellular assay PI3Kbeta, p-Akt(S473) SureFire in Rat-1_PI3Kbeta cells. The format is cell-based. As to conditions: p-AKT(Ser473), 1 h treatment; read-out: Rat1-PI3Kb/IC50. The text has this:
(§1) AlphaScreen (Amplified Luminescent Proximity Homogeneous Assay, ALPHA, Perkin Elmer) is a non-radioactive bead-based proximity assay technology to study biomolecular interactions in a homogenous microtiter plate format. The brand name SureFire denotes AlphaScreen assays that are adapted to quantify the phosphorylation of endogenous cellular proteins in cell lysates, by using matched antibody pairs, which consist of an anti-phospho-kinase and an anti-kinase antibody. The assay allows characterization of kinase signaling in cells as well as measurement of kinase inhibitor effects. The AlphaScreen technology provides several advantages over standard assay techniques such as ELISA, as it avoids time-consuming washing procedures and reduces plate handling. Furthermore, it is miniaturizable at least to a 384-well format and provides sensitivity down to the femtomolar range, dependent on the affinity of the antibodies included in the individual AlphaScreen SureFire assay kit. High sensitivity is reached by an intrinsic amplification mechanism, which involves production of singlet oxygen molecules. SureFire assay kits are commercially available for specific targets and include pairs of validated antibodies (PerkinElmer). This report describes common procedures applied for AlphaScreen SureFire assays and respective semi-automated steps for routine kinase inhibitor profiling in cell-based assays.
The Rat-1 cell lines stably overexpressing activated PI3K class I isoforms Rat-1 pBABEpuro Myr-HA-hp110 delta (Rat-1_PI3Kdelta) and Rat-1 pBABEpuro Myr-HA-hp110alpha (Rat-1_PI3Kalpha) and Rat-1 pBABEpuro Myr-HA-hp110 beta (Rat-1_PI3beta) were prepared as described (Maira S M, Stauffer F, Brueggen J, Furet P, Schnell C, Fritsch C, Brachmann S, Chène P, de Pover A, Schoemaker K, Fabbro D, Gabriel D, Simonen M, Murphy L, Finan P, Sellers W, Garcia-Echeverria C (2008), Mol Cancer Ther. 7:1851-63 and Maira S M, Pecchi S, Brueggen J, Huh K, Schnell C, Fritsch C, Nagel T, Wiesmann M, Brachmann S, Dorsch M, Chène P, Schoemaker K, De Pover A, Menezes D, Fabbro D, Sellers W, Garcia-Echeverria C, Voliva CF (2011), Mol. Cancer Ther., accepted). All cell lines were cultivated in complete growth medium (DMEM high glucose, 10% (v/v) fetal bovine serum, 1% (v/v) MEM NEAA, 10 mM HEPES, 2 mM L-glutamine, puromycin (10 μg/mL for Rat-1_PI3Kdelta and Rat-1_PI3Kalpha, 4 ug/mL for Rat-1_PI3beta), 1% (v/v) Pen/Strep) to 90% confluency at 37° C./5% CO2/90% humidity in a humidified CO2 incubator and were split twice a week. […]

The target in data set [3] is human PI3Kdelta p110 catalytic subunit (Rat-1 cells) (Homo sapiens (Human), UniProt O00329). Briefly: Cellular assay PI3Kdelta, p-Akt(S473) SureFire in Rat-1_PI3Kdelta cells. The format is cell-based. Conditions: p-AKT(Ser473), 1 h treatment; read-out: Rat1-PI3Kd/IC50.
Chain of human PI3Kdelta p110 catalytic subunit (Rat-1 cells) (O00329 whole entry): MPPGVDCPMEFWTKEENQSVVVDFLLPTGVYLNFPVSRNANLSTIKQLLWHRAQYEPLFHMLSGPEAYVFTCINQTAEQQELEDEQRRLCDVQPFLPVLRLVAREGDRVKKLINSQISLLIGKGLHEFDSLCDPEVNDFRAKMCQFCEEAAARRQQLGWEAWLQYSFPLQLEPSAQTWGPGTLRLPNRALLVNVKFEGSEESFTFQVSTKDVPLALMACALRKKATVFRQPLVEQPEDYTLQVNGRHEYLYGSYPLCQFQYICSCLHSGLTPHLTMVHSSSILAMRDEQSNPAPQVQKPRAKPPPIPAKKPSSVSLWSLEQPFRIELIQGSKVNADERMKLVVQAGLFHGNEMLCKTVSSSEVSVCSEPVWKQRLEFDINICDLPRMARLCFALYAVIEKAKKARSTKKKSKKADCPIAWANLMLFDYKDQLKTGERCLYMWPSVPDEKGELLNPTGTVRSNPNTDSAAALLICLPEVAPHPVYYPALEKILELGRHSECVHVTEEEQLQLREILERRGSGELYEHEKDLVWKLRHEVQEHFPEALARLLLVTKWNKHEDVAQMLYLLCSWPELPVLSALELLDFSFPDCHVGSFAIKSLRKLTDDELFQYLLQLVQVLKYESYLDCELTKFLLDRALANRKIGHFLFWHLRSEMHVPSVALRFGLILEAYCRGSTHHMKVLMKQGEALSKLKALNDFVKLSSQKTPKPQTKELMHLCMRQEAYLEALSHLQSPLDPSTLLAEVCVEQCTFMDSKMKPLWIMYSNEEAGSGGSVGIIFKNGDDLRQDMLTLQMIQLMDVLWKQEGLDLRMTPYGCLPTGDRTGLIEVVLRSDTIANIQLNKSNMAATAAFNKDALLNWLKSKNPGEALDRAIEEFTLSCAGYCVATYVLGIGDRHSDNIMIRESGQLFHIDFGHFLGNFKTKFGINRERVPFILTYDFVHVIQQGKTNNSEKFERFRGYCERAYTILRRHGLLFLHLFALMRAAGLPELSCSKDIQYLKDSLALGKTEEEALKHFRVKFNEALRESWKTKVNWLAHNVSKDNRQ
Chain of human PI3Kdelta p110 catalytic subunit (Rat-1 cells) (Q63787 whole entry partner): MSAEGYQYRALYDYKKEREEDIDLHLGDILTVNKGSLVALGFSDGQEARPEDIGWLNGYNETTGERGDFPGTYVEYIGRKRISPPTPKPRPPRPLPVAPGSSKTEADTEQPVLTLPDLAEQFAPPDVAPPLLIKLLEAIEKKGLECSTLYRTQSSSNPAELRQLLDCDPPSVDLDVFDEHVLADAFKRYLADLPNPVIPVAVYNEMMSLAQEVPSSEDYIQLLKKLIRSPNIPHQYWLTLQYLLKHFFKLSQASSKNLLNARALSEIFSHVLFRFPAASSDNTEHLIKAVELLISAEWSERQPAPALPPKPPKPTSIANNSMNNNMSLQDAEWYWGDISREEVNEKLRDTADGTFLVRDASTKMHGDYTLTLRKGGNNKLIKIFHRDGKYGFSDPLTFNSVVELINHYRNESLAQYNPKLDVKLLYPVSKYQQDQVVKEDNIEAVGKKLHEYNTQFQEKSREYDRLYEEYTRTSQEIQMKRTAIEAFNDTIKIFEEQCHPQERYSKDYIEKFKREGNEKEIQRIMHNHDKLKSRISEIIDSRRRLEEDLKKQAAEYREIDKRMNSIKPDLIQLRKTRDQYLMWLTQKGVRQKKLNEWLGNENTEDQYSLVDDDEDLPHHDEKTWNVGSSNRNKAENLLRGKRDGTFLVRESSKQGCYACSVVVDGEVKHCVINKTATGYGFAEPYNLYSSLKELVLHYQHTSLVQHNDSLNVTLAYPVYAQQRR
Excerpt: as §1
The Rat-1 cell lines stably overexpressing activated PI3K class I isoforms Rat-1 pBABEpuro Myr-HA-hp110 delta (Rat-1_PI3Kdelta) and Rat-1 pBABEpuro Myr-HA-hp110alpha (Rat-1_PI3Kalpha) and Rat-1 pBABEpuro Myr-HA-hp110 beta (Rat-1_PI3beta) were prepared as described (Maira S M, Stauffer F, Brueggen J, Furet P, Schnell C, Fritsch C, Brachmann S, Chène P, de Pover A, Schoemaker K, Fabbro D, Gabriel D, Simonen M, Murphy L, Finan P, Sellers W, Garcia-Echeverria C (2008), Mol Cancer Ther. 7:1851-63 and Maira S M, Pecchi S, Brueggen J, Huh K, Schnell C, Fritsch C, Nagel T, Wiesmann M, Brachmann S, Dorsch M, Chène P, Schoemaker K, De Pover A, Menezes D, Fabbro D, Sellers W, Garcia-Echeverria C, Voliva CF (2011), Mol. Cancer Ther., accepted). All cell lines were cultivated in complete growth medium (DMEM high glucose, 10% (v/v) fetal bovine serum, 1% (v/v) MEM NEAA, 10 mM HEPES, 2 mM L-glutamine, puromycin (10 μg/mL for Rat-1_PI3Kdelta and Rat-1_PI3Kalpha, 4 ug/mL for Rat-1_PI3beta), 1% (v/v) Pen/Strep) to 90% confluency at 37° C./5% CO2/90% humidity in a humidified CO2 incubator and were split twice a week.
The following materials were used for p-AKT(5473) detection in Rat-1 cell lysates: Dulbecco's modified Eagle's medium (DMEM) high glucose (Gibco Invitrogen, Basel, Switzerland, Cat. No. 41965), Heat Inactivated Fetal Bovine Serum, Qualified (HI FBS; Gibco Invitrogen, Basel, Switzerland, Lot. No. 16140), MEM non essential amino acids (NEAA; Gibco Invitrogen, Basel, Switzerland, Cat. No. 11140), HEPES (Gibco Invitrogen, Basel, Switzerland, Cat. No. 15630), Penicillin/Streptomycin (Pen/Strep, 100x; Gibco Invitrogen, Basel, Switzerland, Cat. No. 15140-122), L-Glutamine (Gibco Invitrogen, Basel, Switzerland, Cat. No. 25030), Puromycin (Sigma Aldrich, Buchs, Switzerland, Cat. No. P9620), DMSO (MERCK, Dietikon, Switzerland, Cat. No. 8.02912.2500), H2O, MilliQ-H2O unless otherwise stated (MILLIPORE QGARDOOR1, Millipore, Zug, Switzerland), Bovine serum albumine (BSA; Sigma Aldrich, Buchs, Switzerland Cat. No. A8412), SureFire p-Akt ½ (Ser473) Assay Kit (PerkinElmer, Schwerzenbach, Switzerland, Cat. No. TGRAS50K).
The p-Akt(5473) SureFire assay measures the phosphorylation of endogenous cellular Akt ½ at Ser473 in cell lysates. Using Rat-1 cells stably expressing myr-HA-tagged versions of the human PI3Kdelta, PI3Kalpha, or PI3Kbeta p110 catalytic subunit isoforms, the assay was developed as a two-plate protocol in a 384-well format.

Chain of human PI3Kbeta p110 catalytic subunit (Rat-1 cells) (P42338 whole entry): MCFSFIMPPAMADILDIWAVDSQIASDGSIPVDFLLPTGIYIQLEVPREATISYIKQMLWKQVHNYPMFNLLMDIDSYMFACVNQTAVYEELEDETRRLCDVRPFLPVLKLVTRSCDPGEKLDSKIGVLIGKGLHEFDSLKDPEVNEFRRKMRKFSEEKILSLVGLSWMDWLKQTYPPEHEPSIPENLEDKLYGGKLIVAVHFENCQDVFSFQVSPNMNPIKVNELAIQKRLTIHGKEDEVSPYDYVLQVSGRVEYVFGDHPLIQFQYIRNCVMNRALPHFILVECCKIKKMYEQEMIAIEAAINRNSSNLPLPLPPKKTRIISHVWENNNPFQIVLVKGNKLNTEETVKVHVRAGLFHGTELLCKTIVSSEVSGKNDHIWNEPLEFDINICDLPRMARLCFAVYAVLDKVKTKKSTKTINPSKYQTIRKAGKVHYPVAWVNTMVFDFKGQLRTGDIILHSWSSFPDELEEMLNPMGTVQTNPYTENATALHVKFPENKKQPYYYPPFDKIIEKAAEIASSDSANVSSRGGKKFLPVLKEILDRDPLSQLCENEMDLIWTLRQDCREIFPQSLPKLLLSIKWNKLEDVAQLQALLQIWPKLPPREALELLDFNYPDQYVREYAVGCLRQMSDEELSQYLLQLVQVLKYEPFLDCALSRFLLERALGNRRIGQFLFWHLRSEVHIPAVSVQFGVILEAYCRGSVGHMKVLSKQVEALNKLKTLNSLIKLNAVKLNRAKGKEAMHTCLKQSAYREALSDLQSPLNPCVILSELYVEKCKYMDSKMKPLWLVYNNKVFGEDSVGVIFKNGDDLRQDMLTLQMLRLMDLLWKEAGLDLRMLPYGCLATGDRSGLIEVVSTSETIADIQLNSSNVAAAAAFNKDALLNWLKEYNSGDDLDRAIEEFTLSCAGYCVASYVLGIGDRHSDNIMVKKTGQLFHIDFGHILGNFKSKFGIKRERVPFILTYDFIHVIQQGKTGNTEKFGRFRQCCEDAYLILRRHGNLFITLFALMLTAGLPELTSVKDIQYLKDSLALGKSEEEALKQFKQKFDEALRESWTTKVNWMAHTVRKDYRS
Chain of human PI3Kbeta p110 catalytic subunit (Rat-1 cells) (Q63787 whole entry partner): as the sequence (Q63787 whole entry partner) above

As for `CC[C@H]1[C@H](c2ccc(OC)cc2)OC(=O)N1c1cc(-c2cnc(N)nc2C(F)(F)F)nc(N2CCOCC2)n1` (relative stereo) [Example 2, (4S*,5S*)-3-(2′-amino-2-morpholino-4′-(trifluoromethyl)-[4,5′-bipyrimidin]-6-yl)-4-ethyl-5-(4-methoxyphenyl)oxazolidin-2-one], the figures for the IC50 (on human PI3Kβ; in data set [2]) were 96 nM and 751 nM, respectively. In addition, the “% degradation in photostability assay (average)” value (“% degradation” for short) in data set [1] is 3%.
Take `C[C@H]1[C@H](c2nccs2)OC(=O)N1c1cc(-c2cnc(N)nc2C(F)(F)F)nc(N2CCOCC2)n1` [Example 1, (4S,5R)-3-(2′-Amino-2-morpholin-4-yl-4′-trifluoromethyl-[4,5′]bipyrimidinyl-6-yl)-4-methyl-5-thiazol-2-yl-oxazolidin-2-one]: the IC50 at human PI3Kβ was 9 nM. Also, the “% degradation” value in data set [1] amounted to 8%.
For the compound `COc1ccc([C@@H]2OC(=O)N(c3cc(-c4cnc(N)nc4C(F)(F)F)nc(N4CCOCC4)n3)[C@H]2CO)cc1` [Example 3, (4S,5S)-3-(2′-Amino-2-morpholino-4′-(trifluoromethyl)-[4,5′-bipyrimidin]-6-yl)-4-(hydroxymethyl)-5-(4-methoxyphenyl)oxazolidin-2-one], the IC50 was 6 nM in data set [3], 7 nM on human PI3Kβ and 33 nM in data set [2]. In addition, the “% degradation” value in data set [1] amounted to 3%.
Turning to `C[C@H]1[C@H](c2ccccc2)OC(=O)N1c1cc(-c2cnc(N)nc2C(F)(F)F)nc(N2CCOCC2)n1` [Example 5], the IC50 in data set [3] was 119 nM. For the same compound, the “% degradation” value in data set [1] is listed as 17%.
On to `CC[C@H]1[C@H](c2nccs2)OC(=O)N1c1cc(-c2cnc(N)nc2C(F)(F)F)nc(N2CCOCC2)n1` [Example 7], for which the IC50 in data set [3] was 123 nM.
For `CCC1C(c2cccnc2)OC(=O)N1c1cc(-c2cnc(N)nc2C(F)(F)F)nc(N2CCOCC2)n1` (centres unmarked) [Example 8], the IC50 at human PI3Kβ was determined as 67 nM; in data set [2], 26 nM.
As for `CC1C(c2cccnc2)OC(=O)N1c1cc(-c2cnc(N)nc2C(F)(F)F)nc(N2CCOCC2)n1` (centres unmarked) [Example 9], the IC50 in data set [3] is 11 nM.
Turning to `Nc1ncc(-c2cc(N3C(=O)O[C@@H](c4ccccc4)[C@@H]3CO)nc(N3CCOCC3)n2)c(C(F)(F)F)n1` [Example 10], the IC50 in data set [3] was 22 nM; on human PI3Kβ, 5 nM; in data set [2] it was 23 nM. Besides, in data set [1], the “% degradation” value was 7%.
Turning to `C[C@H]1[C@@H](c2nccs2)OC(=O)N1c1cc(-c2cnc(N)nc2C(F)(F)F)nc(N2CCOCC2)n1` [Example 11], the IC50 at human PI3Kβ was 10 nM; in data set [2], 26 nM.
`COCCOc1ccc([C@@H]2OC(=O)N(c3cc(-c4cnc(N)nc4C(F)(F)F)nc(N4CCOCC4)n3)[C@H]2CO)cc1` [Example 12]: the IC50 in data set [3] was 4 nM. Also, in data set [1], the “% degradation” value was 12%.
For `Nc1ncc(-c2cc(N3C(=O)O[C@@H](c4ccc(OCCO)cc4)[C@@H]3CO)nc(N3CCOCC3)n2)c(C(F)(F)F)n1` [Example 13], the IC50 at human PI3Kβ was found to be 11 nM. The “% degradation” value in data set [1] amounted to 4%.
For `Nc1ncc(-c2cc(N3C(=O)O[C@@H](c4ccc(OCCCO)cc4)[C@@H]3CO)nc(N3CCOCC3)n2)c(C(F)(F)F)n1` [Example 14], the “% degradation” value in data set [1] is reported as 8%.
